Structures can show the parent of a compound that is named as a salt.
Test system: MIN6 cell
Test: Insulin secretion promoting activity for cultured β cells (MIN6)
Format: cell-based
Procedure: Culture of the MIN6 cells above and insulin secretion test utilizing the MIN6 cells were performed according to the methods described in Diabetologia, vol. 36, pp. 1139–1145, 1993. The effect of a compound on the insulin secretion in the presence of 14.5 mmol/L glucose was determined by measuring insulin amounts in cell culture supernatants collected as follows. MIN6 cells cultured on a 24-well plate were washed twice by using 1 mL of Buffer A (119 mmol/L sodium chloride, 4.74 mmol/L potassium chloride, 2.54 mmol/L calcium chloride, 1.19 mmol/L magnesium sulfate, 1.19 mmol/L potassium dihydrogenphosphate, 10 mmol/L 2-[4-(2-hydroxyethyl)-1-piperazinyl]ethanesulfonic acid, 0.1% bovine serum albumin, pH 7.3) containing 2 mmol/L glucose, and then were incubated in 1 mL of Buffer A containing 2 mmol/L glucose at 37° C. for 45 minutes. After the incubation, the culture supernatant was changed to Buffer A (0.9 mL) containing a test compound at various concentrations and 2 mmol/L glucose, and the cells were further incubated at 37° C. for 15 minutes. The MIN6 cells were stimulated with glucose by the addition of Buffer A (0.1 mL) containing 127 mmol/L glucose to the culture (final glucose concentration: 14.5 mmol/L). After the stimulation, the cells were further incubated at 37° C. for 45 minutes, and then the culture supernatant was collected.
Separately, the effect of a compound on the insulin secretion in the presence of 5 mmol/L glucose was determined by measuring insulin amounts in cell culture supernatants collected as follows. MIN6 cells cultured on a 24-well plate were washed twice by using 1 mL of Buffer A containing 5 mmol/L glucose, and then the culture supernatant was changed to Buffer A (0.9 mL) containing a test compound at various concentrations and 5 mmol/L glucose. Then, the cells were incubated at 37° C. for 45 minutes (final glucose concentration: 5 mmol/L), and the culture supernatant was collected.
After the culture supernatant was diluted with a phosphate buffer containing 1% bovine serum albumin, 0.1% Tween 20, 0.12% disodium ethylenediaminetetraacetate (EDTA) and 0.1% sodium azide, antibody-reactive insulin secreted in the culture supernatant was quantified by enzyme immunoassay or radio immunoassay. The insulin level was indicated as the amount of human insulin (ng/mL). The results are indicated as averages (avg) for 3 to 4 samples with standard erroe values (se).

[1] = in the presence of 5 mmol/L of glucose, drug concentration 10 (mmol/L [sic]), None = 51.2
[2] = in the presence of 14.5 mmol/L of glucose, drug concentration 1.0 μmol/L, None = 148.4

Structure (SMILES)	Insulin secretion amount (ng/ml) avg [1]	Insulin secretion amount (ng/ml) avg [2]	secretion promoting action at a low glucose concentration (in words) (MIN6 cells, glucose at a low concentration (5 mmol/L))	Insulin secretion amount (ng/ml) avg (in the presence of 5 mmol/L of glucose, drug concentration 0.1 (mmol/L [sic]), None = 51.2)	Insulin secretion amount (ng/ml) avg (in the presence of 14.5 mmol/L of glucose, drug concentration 0.1 μmol/L, None = 148.4)
CCCN1C(=O)N2C[C@@H](Cc3ccccc3)N=C2c2[nH]c(C3(O)CCCC3)nc21 [Compound 40, (R)-8-Benzyl-7,8-dihydro-2-(1-hydroxycyclopentyl)-4-(n-propyl)-1H-imidazo[2,1-i]purin-5(4H)-one]	56.7 ng/mL	191.2 ng/mL			
CCCN1C(=O)N2C[C@@H](Cc3ccccc3)N=C2c2[nH]c(CSCC)nc21.CCCN1C(=O)N2C[C@@H](Cc3ccccc3)N=C2c2[nH]c(CSCC)nc21.O=C(O)/C=C/C(=O)O [Compound 64, (R)-8-Benzyl-2-ethylthiomethyl-7,8-dihydro-4-(n-propyl)-1H-imidazo[2,1-i]purin-5(4H)-one 0.5 fumarate]	61.2 ng/mL	204.9 ng/mL			
CCCN1C(=O)N2CC(Cn3cccn3)N=C2c2[nH]c(C3CCCC3)nc21 (centres unmarked) [Compound 21, 2-Cyclopentyl-7,8-dihydro-4-(n-propyl)-8-(1-pyrazolylmethyl)-1H-imidazo[2,1-i]purin-5(4H)-one]	74.8 ng/mL	182.1 ng/mL			
CCCN1C(=O)N2CC(Cn3cccc3)N=C2c2[nH]c(C3CCCC3)nc21 (centres unmarked) [Compound 24, 2-Cyclopentyl-7,8-dihydro-4-(n-propyl)-8-(1-pyrrolylmethyl)-1H-imidazo[2,1-i]purin-5(4H)-one]	71.8 ng/mL	200.0 ng/mL			
CC(C)(O)CN1C(=O)N2C[C@@H](Cc3ccccc3)N=C2c2[nH]c(C3CCCC3)nc21 [Compound 81, (R)-8-Benzyl-2-cyclopentyl-7,8-dihydro-4-(2-hydroxy-2-methylpropyl)-1H-imidazo[2,1-i]purin-5(4H)-one hydrochloride]	83.1 ng/mL	195.4 ng/mL			
CCCN1C(=O)N2C[C@@H](Cc3ccccc3)N=C2c2[nH]c(COCC)nc21.CCCN1C(=O)N2C[C@@H](Cc3ccccc3)N=C2c2[nH]c(COCC)nc21.O=C(O)/C=C/C(=O)O [Compound 45, (R)-8-Benzyl-2-ethoxymethyl-7,8-dihydro-4-(n-propyl)-1H-imidazo[2,1-i]purin-5(4H)-one 0.5 fumarate]	69.9 ng/mL	178.8 ng/mL			
CC(C)(O)CCN1C(=O)N2C[C@@H](Cc3ccccc3)N=C2c2[nH]c(C3CCCC3)nc21 [Compound 85, (R)-8-Benzyl-2-cyclopentyl-7,8-dihydro-4-(3-hydroxy-3-methylbutyl)-1H-imidazo[2,1-i]purin-5(4H)-one hydrochloride]	53.6 ng/mL	197.1 ng/mL			
COc1ccc(Cl)cc1C(=O)NCCc1ccc(S(=O)(=O)NC(=O)NC2CCCCC2)cc1 [Glibenclamide, reference compound]			marked secretion promoting action	156.8 ng/mL	177.8 ng/mL
CCCN1C(=O)N2C[C@@H](Cc3ccncc3)N=C2c2[nH]c(C3CCCCC3)nc21 [Compound 9, (R)-2-Cyclohexyl-7,8-dihydro-8-(4-picolyl)-4-(n-propyl)-1H-imidazo[2,1-i]purin-5(4H)-one]	74.0 ng/mL	197.6 ng/mL			
CCCN1C(=O)N2C[C@@H](Cc3ccncc3)N=C2c2[nH]c(C3CCC3)nc21 [Compound 10, (R)-2-Cyclobutyl-7,8-dihydro-8-(4-picolyl)-4-(n-propyl)-1H-imidazo[2,1-i]purin-5(4H)-one D-tartrate]	74.9 ng/mL	196.8 ng/mL			
CCCN1C(=O)N2C[C@@H](Cc3ccccc3)N=C2c2[nH]c(C3CCCO3)nc21 (stereo partly drawn) [Compound 51, (R)-8-Benzyl-7,8-dihydro-4-(n-propyl)-2-(tetrahydrofuran-2-yl)-1H-imidazo[2,1-i]purin-5(4H)-one D-tartrate]	79.2 ng/mL	180.8 ng/mL			

From patent publication US7005430B2, “Fused purine derivatives” (Kyowa Hakko Kogyo Co., Ltd., priority 1999, dated 2006)
